Results published in patent publication US6784201B2, “Benzothiepines having activity as inhibitors of ileal bile acid transport and taurocholate uptake” (G.D. Searle & Company, priority 1994, dated 2004).

biological target: T1, human IBAT (Homo sapiens, UniProt Q12908); assay: In vitro assay of IBAT-mediated uptake of [14C]-taurocholate (TC) in H14 cells; format: cell-based; conditions: 50 μM
T1 construct: expressed in transfected cells; host or cells: Baby hamster kidney (BHK) cells, clone H14
T1 sequence (Q12908 1-348): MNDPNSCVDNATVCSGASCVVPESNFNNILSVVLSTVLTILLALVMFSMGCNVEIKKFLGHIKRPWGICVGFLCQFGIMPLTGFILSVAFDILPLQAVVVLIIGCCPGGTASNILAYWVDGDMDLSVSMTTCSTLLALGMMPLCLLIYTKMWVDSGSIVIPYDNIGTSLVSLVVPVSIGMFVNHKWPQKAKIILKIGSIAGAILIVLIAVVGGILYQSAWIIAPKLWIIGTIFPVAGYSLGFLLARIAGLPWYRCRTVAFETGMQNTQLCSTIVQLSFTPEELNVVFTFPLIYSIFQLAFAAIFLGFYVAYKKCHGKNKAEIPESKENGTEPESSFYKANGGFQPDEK
Experimental: In Vitro Assay of Compounds that Inhibit IBAT-Mediated Uptake of [^14C]-Taurocholate (TC) in H14 Cells
Baby hamster kidney cells (BHK) transfected with the cDNA of human IBAT (H14 cells) are seeded at 60,000 cells/well in 96 well Top-Count tissue culture plates for assays run within in 24 hours of seeding, 30,000 cells/well for assays run within 48 hours, and 10,000 cells/well for assays run within 72 hours.
On the day of assay, the cell monolayer is gently washed once with 100 μl assay buffer (Dulbecco's Modified Eagle's medium with 4.5 g/L glucose+0.2% (w/v) fatty acid free bovine serum albumin-(FAF)BSA). To each well 50 μl of a two-fold concentrate of test compound in assay buffer is added along with 50 μl of 6 μM [^14C]-taurocholate in assay buffer (final concentration of 3 μM [^14C]-taurocholate). The cell culture plates are incubated 2 hours at 37° C. prior to gently washing each well twice with 100 μl 4° C. Dulbecco's phosphate-buffered saline (PBS) containing 0.2% (w/v) (FAF)BSA. The wells are then gently washed once with 100 μl 4° C. PBS without (FAF)BSA. To each 200 μl of liquid scintillation counting fluid is added, the plates are heat sealed and shaken for 30 minutes at room temperature prior to measuring the amount of radioactivity in each well on a Packard Top-Count instrument.

In vitro % Inhibition of TC Uptake [%]	Compound
88	8b-Phenyl-1a,2,3,8b-tetrahydrospiro(benzothiepino[4,5-b]oxirene-2,1′-cyclohexane)-4,4-dioxide [Example 58]

same assay, conditions: 100 uM

In vitro % Inhibition of TC Uptake @ 100 uM [%]	Compound
45	CCCCC1(CC)CS(=O)(=O)c2ccccc2C(Sc2ccccc2)C1O (single isomer, unassigned) [Example 21b, 3-Butyl-3-ethyl-4-hydroxy-5-phenylthio-2,3,4,5-tetrahydro-benzothiepine-1,1-dioxide]
52	CCCCC1(CC)CS(=O)(=O)c2ccccc2C(Sc2ccccc2)C1O (single isomer, unassigned) [Example 21c, 3-Butyl-3-ethyl-4-hydroxy-5-phenylthio-2,3,4,5-tetrahydro-benzothiepine-1,1-dioxide]

same assay, conditions: 100 uM; read-out: In vitro % Inhibition of TC Uptake @ 100 uM

inhibition at 100 µM [%]	Compound
3	CCCC[C@]1(CC)CSc2ccccc2[C@H](c2ccccc2)C1=O (relative stereo) [Example 4a, cis-3-Butyl-3-ethyl-5-phenyl-2,3-dihydrobenzothiepin-(5H)4-one]
9	CCCC[C@]1(CC)CSc2ccccc2[C@@H](c2ccccc2)C1=O (relative stereo) [Example 4b, trans-3-Butyl-3-ethyl-5-phenyl-2,3-dihydro-benzothiepin-(5H)4-one]
34	CCCC[C@]1(CC)CS(=O)(=O)c2ccccc2[C@H](c2ccccc2)C1=O (relative stereo) [Example 5a, cis-3-Butyl-3-ethyl-5-phenyl-2,3-dihydrobenzothiepin-(5H) 4-one-1,1-dioxide]

same assay, conditions: H14 cells, Table 5; read-out: IC50 uM (In vitro Taurocholate Cell Uptake)

IC50 [µM]	Compound
70	O=S1(=O)CC2(CCCCC2)[C@@H](O)[C@H](c2ccccc2)c2ccccc21 (relative stereo) [Example 59, trans-4-Hydroxy-5-phenyl-2,3,4,5-tetrahydro spiro(benzothiepine-3,1′-cyclohexane)-1,1-dioxide]

same assay, conditions: Human TC IC50

Compound	IC50 [µM]
CCCCC1(CC)CS(=O)(=O)c2ccc(N(C)C)cc2C(c2ccccc2)C1O (single isomer, unassigned) [Example 1259]	16.5
CCCCC1(CC)CS(=O)(=O)c2ccc(N(C)C)cc2C(c2ccccc2)C1O (single isomer, unassigned) [Example 1300]	1

same assay, conditions: read-out: Human TC IC50

IC50 [µM]	Compound
0.3	CCCCC1(CC)CS(=O)(=O)c2ccc(NC(=O)OCc3ccccc3)cc2C(c2ccc(OC)cc2)C1O (single isomer, unassigned) [Example 116]
0.035	CCCCC1(CC)CS(=O)(=O)c2ccc(N)cc2C(c2ccc(F)cc2)C1O (single isomer, unassigned) [Example 129]
0.5	CCCCC1(CC)CS(=O)(=O)c2ccc(SC)cc2C(c2cccc(OC)c2)C1O (single isomer, unassigned) [Example 142]
0.03	CCCCC1(CC)CS(=O)(=O)c2ccc(SC)cc2C(c2cccc(OC)c2)C1O (single isomer, unassigned) [Example 143]
0.07	CCCCC1(CC)CS(=O)(=O)c2ccc(OC)cc2C(c2cccc(OC)c2)C1O (single isomer, unassigned) [Example 262]
0.2	CCCCC1(CC)CS(=O)(=O)c2ccc(OC)cc2C(c2cccc(C(F)(F)F)c2)C1O (single isomer, unassigned) [Example 264]
2	CCCCC1(CC)CS(=O)(=O)c2ccc(OC)cc2C(c2cccc(C(F)(F)F)c2)C1O (single isomer, unassigned) [Example 265]
0.7	CCCCC1(CC)CS(=O)(=O)c2ccc(Br)cc2C(c2cccc(OC)c2)C1O (single isomer, unassigned) [Example 272]
1.9	CCCCC1(CC)CS(=O)(=O)c2ccc(F)cc2C(c2ccc(F)cc2)C1O (single isomer, unassigned) [Example 273]
0.18	CCCCC1(CC)CS(=O)(=O)c2ccc(F)cc2C(c2ccc(F)cc2)C1O (single isomer, unassigned) [Example 274]
0.021	CCCCC1(CC)CS(=O)(=O)c2ccc(C)cc2C(c2ccc(F)cc2)C1O (single isomer, unassigned) [Example 282]
0.031	CCCCC1(CC)CS(=O)(=O)c2ccc(N(C)C)cc2C(c2ccc(OC)c(F)c2)C1O (single isomer, unassigned) [Example 1151]
6.1	CCCCC1(CCCC)CS(=O)(=O)c2ccc(N(C)C)cc2C(c2ccccc2)C1O (single isomer, unassigned) [Example 1200]
0.39	CCCCC1(CCCC)CS(=O)(=O)c2c(cccc2N2CCOCC2)C(c2ccc(OC)cc2)C1O (single isomer, unassigned) [Example 1212]
1.2	CCCCC1(CCCC)CS(=O)(=O)c2c(cccc2N(C)C)C(c2ccsc2)C1O (single isomer, unassigned) [Example 1232]
3.27	CCCCC1(CC)CS(=O)(=O)c2ccc(NO)cc2C(c2ccccc2)C1O (single isomer, unassigned) [Example 1311]

Continued, compound first:

Compound	IC50 [µM]
CCCCC1(CC)CS(=O)(=O)c2ccc(NC(=O)OCc3ccccc3)cc2C(c2ccc(OC)cc2)C1O (single isomer, unassigned) [Example 115]	8
CCCCC1(CC)CS(=O)(=O)c2ccc(N)cc2C(c2ccccc2)C1O (single isomer, unassigned) [Example 121]	0.068
CCCCC1(CC)CS(=O)(=O)c2ccc(N)cc2C(c2ccccc2)C1O (single isomer, unassigned) [Example 122]	1.07
CCCCC1(CC)CS(=O)(=O)c2ccc(N)cc2C(c2ccc(F)cc2)C1O (single isomer, unassigned) [Example 127]	0.55
CCCCC1(CC)CS(=O)(=O)c2ccc(OC)cc2C(c2cccc(OC)c2)C1O (single isomer, unassigned) [Example 263]	0.7
CCCCC1(CC)CS(=O)(=O)c2ccc(Br)cc2C(c2cccc(OC)c2)C1O (single isomer, unassigned) [Example 271]	0.07
CCCCC1(CC)CS(=O)(=O)c2ccc(C)cc2C(c2ccc(F)cc2)C1O (single isomer, unassigned) [Example 283]	0.35
CCCCC1(CCCC)CS(=O)(=O)c2c(cccc2N(C)C)C(c2ccsc2)C1O (single isomer, unassigned) [Example 1067]	0.004
CCCCC1(CC)CS(=O)(=O)c2ccc(N(C)C)cc2C(c2ccc(O)cc2)C1O (single isomer, unassigned) [Example 1078]	0.0045
CCCCC1(CC)CS(=O)(=O)c2ccc(N(C)C)cc2C(c2cccc(C)c2)C1O (single isomer, unassigned) [Example 1116]	0.0093
CCCCC1(CCCC)CS(=O)(=O)c2ccc(N(C)C)cc2C(c2ccc(OC)c(F)c2)C1O (single isomer, unassigned) [Example 1143]	0.027
CCCCC1(CC)CS(=O)(=O)c2ccc(N(C)C)cc2C(c2ccc(OC)c(F)c2)C1O (single isomer, unassigned) [Example 1213]	1.7
CCCCC1(CC)CS(=O)(=O)c2ccc(N(C)C)cc2C(c2cccc(C)c2)C1O (single isomer, unassigned) [Example 1225]	0.12
CCCCC1(CC)CS(=O)(=O)c2ccc(N(C)C)cc2C(c2ccc(O)cc2)C1O (single isomer, unassigned) [Example 1287]	0.071
CCCCC1(CCCC)CS(=O)(=O)c2c(cccc2N2CCOCC2)C(c2ccc(OC)cc2)C1O (single isomer, unassigned) [Example 1307]	3.1
